Results taken from ChEMBL document CHEMBL1649292, “In vivo investigations of selected diamidine compounds against Trypanosoma evansi using a mouse model” (2009).
The source made the active and inactive calls. No cut-off for these calls is given here.

Experiments:
[1] = test system: Trypanosoma evansi; experiment: Antimicrobial activity against Trypanosoma evansi STIB 806K infected in NMRI mouse assessed as host survival days at 0.5 mg/kg, ip administered 3 to 6 days after infection for 4 consecutive days; assay type: functional; conditions: route intraperitoneal
[2] = test system: Trypanosoma evansi; experiment: Antimicrobial activity against Trypanosoma evansi STIB 806K infected in NMRI mouse assessed as complete cure from microbial infection at 0.5 mg/kg, ip administered 3 to 6 days after infection for 4 consecutive days; assay type: functional, organism-based; set-up: dose 0.5 mg/kg
[3] = test system: Trypanosoma evansi; experiment: Antimicrobial activity against Trypanosoma evansi STIB 806K infected in NMRI mouse assessed as host survival days at 2 mg/kg, ip administered 3 to 6 days after infection for 4 consecutive days; assay type: functional; conditions: route intraperitoneal
[4] = test system: Trypanosoma evansi; experiment: Antimicrobial activity against Trypanosoma evansi STIB 806K infected in NMRI mouse assessed as complete cure from microbial infection at 2 mg/kg, ip administered 3 to 6 days after infection for 4 consecutive days; assay type: functional, organism-based; set-up: dose 2 mg/kg
[5] = test system: Trypanosoma evansi; experiment: Antimicrobial activity against Trypanosoma evansi STIB 806K infected in NMRI mouse assessed as host survival days at 0.25 mg/kg, ip administered 3 to 6 days after infection for 4 consecutive days; assay type: functional; conditions: route intraperitoneal
[6] = test system: Trypanosoma evansi; experiment: Antimicrobial activity against Trypanosoma evansi STIB 806K infected in NMRI mouse assessed as host survival days at 0.125 mg/kg, ip administered 3 to 6 days after infection for 4 consecutive days; assay type: functional; conditions: route intraperitoneal
[7] = test system: Trypanosoma evansi; experiment: Antimicrobial activity against Trypanosoma evansi STIB 806K infected in NMRI mouse assessed as complete cure from microbial infection at 0.25 mg/kg, ip administered 3 to 6 days after infection for 4 consecutive days; assay type: functional, organism-based; set-up: dose 0.25 mg/kg
[8] = test system: Trypanosoma evansi; experiment: Antimicrobial activity against Trypanosoma evansi STIB 806K infected in NMRI mouse assessed as complete cure from microbial infection at 1 mg/kg, ip administered 3 to 6 days after infection for 4 consecutive days; assay type: functional, organism-based; set-up: dose 1 mg/kg
[9] = test system: Trypanosoma evansi; experiment: Antimicrobial activity against Trypanosoma evansi STIB 806K infected in NMRI mouse assessed as host survival days at 1 mg/kg, ip administered 3 to 6 days after infection for 4 consecutive days; assay type: functional; conditions: route intraperitoneal
[10] = test system: Trypanosoma evansi; experiment: Antimicrobial activity against Trypanosoma evansi STIB 806K infected in NMRI mouse assessed as complete cure from microbial infection at 0.20 mg/kg, ip administered 3 to 6 days after infection for 4 consecutive days; assay type: functional, organism-based; set-up: dose 0.2 mg/kg
[11] = test system: Trypanosoma evansi; experiment: Antimicrobial activity against Trypanosoma evansi STIB 806K infected in NMRI mouse assessed as host survival days at 0.20 mg/kg, ip administered 3 to 6 days after infection for 4 consecutive days; assay type: functional; conditions: dose 0.2 mg/kg; route intraperitoneal
[12] = test system: Trypanosoma evansi; experiment: Antimicrobial activity against Trypanosoma evansi STIB 806K infected in NMRI mouse assessed as host survival days at 0.0625 mg/kg, ip administered 3 to 6 days after infection for 4 consecutive days; assay type: functional; conditions: route intraperitoneal
[13] = test system: Trypanosoma evansi; experiment: Antimicrobial activity against Trypanosoma evansi STIB 806K infected in NMRI mouse assessed as host survival days at 0.03125 mg/kg, ip administered 3 to 6 days after infection for 4 consecutive days; assay type: functional; conditions: route intraperitoneal
[14] = test system: Trypanosoma evansi; experiment: Antimicrobial activity against Trypanosoma evansi STIB 806K infected in NMRI mouse assessed as complete cure from microbial infection at 0.125 mg/kg, ip administered 3 to 6 days after infection for 4 consecutive days; assay type: functional, organism-based; set-up: dose 0.125 mg/kg
[15] = test system: Trypanosoma evansi; experiment: Antimicrobial activity against Trypanosoma evansi STIB 806K infected in NMRI mouse assessed as complete cure from microbial infection at 0.0625 mg/kg, ip administered 3 to 6 days after infection for 4 consecutive days; assay type: functional, organism-based; set-up: dose 0.0625 mg/kg
[16] = test system: Trypanosoma evansi; experiment: Antimicrobial activity against Trypanosoma evansi STIB 806K infected in NMRI mouse assessed as complete cure from microbial infection at 0.2 mg/kg, ip administered 3 to 6 days after infection for 4 consecutive days; assay type: functional, organism-based; set-up: dose 0.2 mg/kg
[17] = test system: Trypanosoma evansi; experiment: Antimicrobial activity against Trypanosoma evansi STIB 806K infected in NMRI mouse assessed as host survival days at 0.2 mg/kg, ip administered 3 to 6 days after infection for 4 consecutive days; assay type: functional; conditions: route intraperitoneal

SMILES | Survival [1] [days] | Activity [2] | Survival [3] [days] | Activity [4] | other results
COc1cc(-c2ccc(C(=N)N)cc2)c(OC)cc1-c1ccc(C(=N)N)cc1 | 7 | inactive | – | – | –
Cn1c(-c2ccc(C(=N)N)cc2)ccc1-c1ccc(C(=N)N)cc1 | – | – | 49 | – | –
N=C(N)c1ccc(-c2csc(-c3ccc(C(=N)N)cc3)n2)cc1 | – | – | 53 | – | –
N=C(N)c1ccc(-c2ccc(-c3nc4cc(C(=N)N)ccc4o3)o2)cc1 | – | – | 23 | inactive | –
N=C(N)c1cccc(-c2ccc(-c3nc4cc(C(=N)N)ccc4[nH]3)cc2)c1 | 12 | inactive | – | – | –
N=C(N)c1ccc(-c2ccc(-c3ccc(C(=N)N)cc3O)o2)cc1 | 60 | Active | 60 | Active | Survival [5]: 38 days; Survival [6]: 32 days
Cn1c(-c2ccc(C(=N)N)nc2)ccc1-c1ccc(C(=N)N)nc1 | 34 | – | – | – | –
c1cc(-c2cc3cc(C4=NCCN4)ccc3[nH]2)ccc1C1=NCCN1 | – | – | 39 | – | –
Cc1cc(C(=N)N)cn2cc(-c3ccc(-c4ccc(C(=N)N)cc4)o3)nc12 | – | – | 13 | inactive | –
N=C(N)c1ccc(-c2ccc(-c3ccc(C(=N)N)o3)cn2)cc1 | – | – | 28 | – | –
COc1cc(C(=N)N)ccc1-c1ccnc(-c2ccc(C(=N)N)cc2)n1 | 15 | inactive | – | – | –
N=C(N)c1ccc(-c2ccc(-c3ccc4ccc(C(=N)N)cc4c3)o2)cc1 | 15 | inactive | – | – | –
N=C(N)c1ccc(-c2ccc(-c3ccc(C(=N)N)cn3)o2)cc1 | 60 | Active | – | – | Survival [5]: 60 days; Survival [6]: 50 days; Activity [7]: Active
Cc1cc(=N)c2ccc(Nc3cc(C)[n+](C)c(N)n3)cc2n1C.O=S(=O)([O-])O [QUINAPYRAMINE SULFATE] | 57 | – | – | – | Activity [8]: Active; Survival [5]: 41 days; Survival [9]: 60 days
N=C(N)c1ccc(-c2ccc(-c3ccc(C(=N)N)nc3)o2)cc1 | 60 | Active | 60 | Active | Survival [5]: 54 days; Survival [6]: 46 days
Cc1cc(C2=NCCN2)ccc1-c1cc2cc(C3=NCCN3)ccc2[nH]1 | 7 | inactive | – | – | –
N=C(N)c1ccc(-c2ccc(-c3ccc(C(=N)N)cc3)o2)cc1 [FURAMIDINE] | – | – | – | – | Survival [5]: 60 days; Survival [6]: 55 days; Activity [7]: Active; Activity [10]: Active; Survival [11]: 60 days; Survival [12]: 29 days

SMILES | Survival [1] [days] | Activity [2] | Survival [3] [days] | Activity [4] | other results
N=C(N)c1ccc(-c2ccc(-c3ccc(C(=N)N)nc3)o2)nc1 | 60 | Active | 60 | Active | Survival [5]: 46 days; Survival [6]: 23 days
Cc1ccc(C(=O)Nc2ccc(S(=O)(=O)O)c3cc(S(=O)(=O)O)cc(S(=O)(=O)O)c23)cc1NC(=O)c1cccc(NC(=O)Nc2cccc(C(=O)Nc3cc(C(=O)Nc4ccc(S(=O)(=O)O)c5cc(S(=O)(=O)O)cc(S(=O)(=O)O)c45)ccc3C)c2)c1 [SURAMIN] | 51 | – | – | – | Activity [8]: Active; Survival [5]: 11 days; Activity [7]: inactive; Survival [9]: 60 days
NCCS[As](SCCN)c1ccc(Nc2nc(N)nc(N)n2)cc1 | – | – | – | – | Survival [6]: 60 days; Survival [13]: 37 days; Activity [14]: Active; Activity [15]: Active; Survival [12]: 60 days
N=C(N)c1ccc(-c2ccc(-c3ccc(C(=N)N)cc3F)o2)c(F)c1 | 43 | – | – | – | –
CNC(=N)c1ccc(OCCCCCOc2ccc(C(=N)NC)cc2)cc1 | – | – | 29 | inactive | –
CNC(=N)Nc1ccc(-c2ccc(-c3ccc(NC(=N)NC)cc3)cc2)cc1 | 13 | inactive | – | – | –
Cc1cc(C(=N)N)ccc1-c1cc2cc(C(=N)N)ccc2[nH]1 | 60 | Active | 60 | Active | Survival [5]: 51 days; Survival [6]: 29 days
Cc1cc(C(=N)N)ccc1-c1ccc(-c2nc3ccc(C(=N)N)cc3[nH]2)o1 | 16 | inactive | – | – | –
N=C(N)c1ccc(-c2cccc(-c3ccc(C(=N)N)cc3)n2)cc1 | 16 | inactive | – | – | –
N=C(N)c1ccc2nc(-c3ccc(-c4ccc(C(=N)N)c(F)c4)o3)[nH]c2c1 | 27 | inactive | – | – | –
N=C(N)c1ccc(-c2cc(-c3ccc(C(=N)N)cc3)on2)cc1 | 29 | – | 60 | Active | –
N=C(N)c1ccc(-c2cccc(-c3nc4ccc(C(=N)N)cc4[nH]3)c2)nc1 | – | – | 18 | inactive | –
N=C(N)c1ccc(-c2ccc(-c3cn4cc(C(=N)N)ccc4n3)cc2)cc1 | – | – | 35 | – | Activity [16]: inactive; Survival [17]: 12 days
COc1cc(C(=N)N)ccc1OCCCOc1ccc(C(=N)N)cc1OC | – | – | 29 | – | –
N=C(N)c1ccc(/N=N/Nc2ccc(C(=N)N)cc2)cc1 [DIMINAZENE] | – | – | 60 | Active | Activity [16]: inactive; Survival [9]: 44 days; Survival [17]: 9 days
N=C(N)c1ccc(-c2coc(-c3ccc(C(=N)N)cc3)c2)cc1 | 57 | – | 60 | Active | Survival [5]: 41 days
